Data on 15 compounds can be found in ChEMBL document CHEMBL3867489, “Design, synthesis, antibacterial activity and docking study of some new trimethoprim derivatives” (2016).

For one assay, the system named is Escherichia coli. The assay can be described thus: Antibacterial activity against Escherichia coli by agar well diffusion method. In kind it is functional. For orientation: In agar diffusion tests the substance spreads into inoculated agar from a disc or well.
The next assay relates to Staphylococcus aureus. In words: Antibacterial activity against Staphylococcus aureus by agar well diffusion method. The assay is classed as functional.

≈ marks a conversion by molar mass, not a printed value.

In general, MIC refers to the lowest concentration that inhibits growth of the organism. A lower MIC goes with inhibition by little substance. Consider `COc1cc(Cc2cnc(N)nc2N)cc(OC)c1OC` [TRIMETHOPRIM], for which the MIC in the assay on Escherichia coli stood at 55.1 µM (≈ 16 µg/mL); against Staphylococcus aureus, 22.7 µM (≈ 6.59 µg/mL).

Take `COc1ccc(C(=O)COc2c(OC)cc(Cc3cnc(N)nc3N)cc2OC)cc1`: the MIC in the assay on Escherichia coli and against Staphylococcus aureus was 18.7 µM (≈ 7.94 µg/mL) throughout.

Take `COc1cc(Cc2cnc(N)nc2N)cc(OC)c1OCc1ccc(Cl)cc1`: the results for the MIC in the assay on Escherichia coli and against Staphylococcus aureus were 8.3 µM (≈ 3.33 µg/mL) and 20 µM (≈ 8.02 µg/mL), respectively.

On to `COc1cc(Cc2cnc(N)nc2/N=C/c2ccc(Cl)cc2)cc(OC)c1O`, for which the MIC against Escherichia coli and against Staphylococcus aureus was 535 µM (≈ 214 µg/mL) throughout.

On to `COc1cc(Cc2cnc(N)nc2N)cc(OC)c1OCC(=O)c1ccccc1`, for which the MIC against Escherichia coli and in the assay with Staphylococcus aureus was 81.2 µM (≈ 32 µg/mL) throughout.

As to `COc1cc(Cc2cnc(N)nc2N)cc(OC)c1OCC(=O)c1ccc([N+](=O)[O-])cc1`, the MIC in the assay with Escherichia coli and in the assay with Staphylococcus aureus was 72.9 µM (≈ 32 µg/mL) throughout.

As to `COc1cc(Cc2cnc(N)nc2N)cc(OC)c1OCC(=O)c1ccc(C)cc1`, the MIC against Escherichia coli is 15.5 µM (≈ 6.33 µg/mL); in the assay with Staphylococcus aureus it was 37.7 µM (≈ 15.4 µg/mL).

`COc1ccc(COc2c(OC)cc(Cc3cnc(N)nc3N)cc2OC)cc1`: the figures for the MIC against Escherichia coli and against Staphylococcus aureus were 4 µM (≈ 1.59 µg/mL) and 5 µM (≈ 1.98 µg/mL), respectively.

Consider `COc1cc(Cc2cnc(N)nc2N)cc(OC)c1OCc1ccccc1`, for which the MIC in the assay on Escherichia coli and in the assay on Staphylococcus aureus was 18.2 µM (≈ 6.67 µg/mL) throughout.

On to `COc1cc(Cc2cnc(N)nc2/N=C/c2ccc(O)cc2)cc(OC)c1O`, for which the MIC in the assay on Escherichia coli and against Staphylococcus aureus was 672 µM (≈ 256 µg/mL) each time.

As to `COc1cc(Cc2cnc(N)nc2N)cc(OC)c1OCc1ccc(C)cc1`, the MIC in the assay with Escherichia coli is 5 µM (≈ 1.9 µg/mL); against Staphylococcus aureus it was 10 µM (≈ 3.8 µg/mL).

As for `COc1cc(Cc2cnc(N)nc2N)cc(OC)c1OCC(=O)c1ccc(Cl)cc1`, the MIC in the assay on Escherichia coli and against Staphylococcus aureus was 78.4 µM (≈ 33.6 µg/mL) each time.

Turning to `COc1cc(Cc2cnc(N)nc2/N=C/c2cccc(O)c2)cc(OC)c1O`, the figures for the minimum inhibitory concentration (MIC) with Escherichia coli and against Staphylococcus aureus were 336 µM (≈ 128 µg/mL) and 672 µM (≈ 256 µg/mL), respectively.

Take `COc1cc(Cc2cnc(N)nc2N)cc(OC)c1O` [4-HYDROXYTRIMETHOPRIM]: the MIC in the assay on Escherichia coli turned out to be 48.2 µM (≈ 13.3 µg/mL); in the assay on Staphylococcus aureus, 24.1 µM (≈ 6.66 µg/mL).

`COc1cc(Cc2cnc(N)nc2N)cc(OC)c1OCc1ccc([N+](=O)[O-])cc1`: the MIC against Escherichia coli is 39 µM (≈ 16 µg/mL); against Staphylococcus aureus, 32.3 µM (≈ 13.3 µg/mL).
